In US20150133460A1 (Millennium Phamaceuticals, Inc., priority 2013, published 2015):

Experiment: Equilibrium aqueous solubility
Assay type: physicochemical
Conditions: physiologically relevant pH's

For `COc1cc2c(N3CCN(C(=O)Nc4ccc(OC(C)C)cc4)CC3)ncnc2cc1OCCCN1CCCCC1.C[C@H](O)C(=O)O` [Form 1, 4-[6-methoxy-7-(3-piperidin-1-yl-propoxy)quinazolin-4-yl]piperazine-1-carboxylic acid(4-isopropoxyphenyl)-amide (L)-lactate (I) Form 1], the solubility in water was “greater than 450 mg/mL”.
With `COc1cc2c(N3CCN(C(=O)Nc4ccc(OC(C)C)cc4)CC3)ncnc2cc1OCCCN1CCCCC1.C[C@H](O)C(=O)O` [Form 4, 4-[6-methoxy-7-(3-piperidin-1-yl-propoxy)quinazolin-4-yl]piperazine-1-carboxylic acid(4-isopropoxyphenyl)-amide (L)-lactate (I) Form 4] the solubility in water was “greater than 325 mg/mL”.
